Test results as given in ChEMBL document CHEMBL1201862, “PubChem BioAssay data set” (2004).
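96-well plates; 48 h exposure; 5 concentrations. Endpoints by linear interpolation between flanking doses. Not reached: highest tested concentration assigned. At the GI50, growth is halved.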 Calls of active or inactive are those of the source. Rule as the data show it: active = GI50 up to about 1.1 µM and inactive = higher.

Legend:
Experiment in all cases: DTP human tumour cell line panel, 48 h
SK-OV-3 = system: SK-OV-3
HT-29 = system: HT-29
Hs-578T = system: Hs-578T
HL-60 = system: HL-60
U-251 = system: U-251
SF-295 = system: SF-295
NCI-H226 = system: NCI-H226
SN12C = system: SN12C
CAKI-1 = system: CAKI-1
UACC-62 = system: UACC-62
LOX IMVI = system: LOX IMVI
EKVX = system: EKVX
TK-10 = system: TK-10
DU-145 = system: DU-145
NCI-H460 = system: NCI-H460
MOLT-4 = system: MOLT-4
MDA-N = system: MDA-N
786-0 = system: 786-0
T47D = system: T47D
MCF7 = system: MCF7

O=[N+]([O-])c1ccc2[nH]nc(OCc3ccccc3Cl)c2c1
GI50 (SK-OV-3): 13.8 µM (inactive) | GI50 (HT-29): > 100 µM (inactive) | GI50 (Hs-578T): 42.3 µM (inactive) | GI50 (HL-60): > 100 µM (inactive) | GI50 (U-251): 28.3 µM (inactive) | GI50 (SF-295): 42.6 µM (inactive) | GI50 (NCI-H226): 68.5 µM (inactive) | GI50 (SN12C): > 100 µM (inactive) | GI50 (CAKI-1): 50.4 µM (inactive) | GI50 (UACC-62): 29.2 µM (inactive) | GI50 (LOX IMVI): 28.6 µM (inactive) | GI50 (EKVX): 54.2 µM (inactive) | GI50 (TK-10): 29.9 µM (inactive) | GI50 (DU-145): 50.7 µM (inactive) | GI50 (NCI-H460): 35.5 µM (inactive) | GI50 (MOLT-4): 63.5 µM (inactive) | GI50 (MDA-N): > 100 µM (inactive) | GI50 (786-0): 25 µM (inactive) | GI50 (T47D): 15 µM (inactive)

COc1ccc2[nH]c3c(c2c1)CC(=S)N1CCCC(CC3=O)C1 (centres undefined)
GI50 (SK-OV-3): 90.8 µM (inactive) | GI50 (HT-29): 45.4 µM (inactive) | GI50 (Hs-578T): 44 µM (inactive) | GI50 (U-251): 33.3 µM (inactive) | GI50 (MCF7): 34.3 µM (inactive) | GI50 (SF-295): 39.7 µM (inactive) | GI50 (NCI-H226): 91.6 µM (inactive) | GI50 (SN12C): 63 µM (inactive) | GI50 (CAKI-1): 91 µM (inactive) | GI50 (UACC-62): 39 µM (inactive) | GI50 (EKVX): 37.8 µM (inactive) | GI50 (TK-10): > 100 µM (inactive) | GI50 (DU-145): 62.4 µM (inactive) | GI50 (NCI-H460): 31.8 µM (inactive) | GI50 (MDA-N): 45.2 µM (inactive) | GI50 (786-0): 58.2 µM (inactive) | GI50 (T47D): 48.9 µM (inactive)

O=C(c1cccnc1)N1N=C(c2ccccc2)CC1(O)c1cc(F)c(Cl)cc1Cl (centres undefined)
GI50 (SK-OV-3): 23.7 µM (inactive) | GI50 (HT-29): 19.6 µM (inactive) | GI50 (Hs-578T): 27 µM (inactive) | GI50 (HL-60): 21.4 µM (inactive) | GI50 (U-251): 16.4 µM (inactive) | GI50 (SF-295): 16.3 µM (inactive) | GI50 (NCI-H226): 15.6 µM (inactive) | GI50 (SN12C): 17.2 µM (inactive) | GI50 (CAKI-1): 33.3 µM (inactive) | GI50 (LOX IMVI): 15.7 µM (inactive) | GI50 (EKVX): 21.8 µM (inactive) | GI50 (TK-10): 41 µM (inactive) | GI50 (DU-145): 32.1 µM (inactive) | GI50 (NCI-H460): 18.6 µM (inactive) | GI50 (MOLT-4): 14.5 µM (inactive) | GI50 (MDA-N): 28.6 µM (inactive) | GI50 (786-0): 22.1 µM (inactive) | GI50 (T47D): 12.3 µM (inactive)

O=C(CC(C(=O)c1cccs1)c1ccsc1)c1cccs1 (centres undefined)
GI50 (SK-OV-3): 61.9 µM (inactive) | GI50 (HT-29): > 100 µM (inactive) | GI50 (Hs-578T): > 100 µM (inactive) | GI50 (U-251): > 100 µM (inactive) | GI50 (MCF7): 52.2 µM (inactive) | GI50 (SF-295): 42 µM (inactive) | GI50 (NCI-H226): > 100 µM (inactive) | GI50 (SN12C): > 100 µM (inactive) | GI50 (CAKI-1): > 100 µM (inactive) | GI50 (UACC-62): 62.1 µM (inactive) | GI50 (EKVX): 28.8 µM (inactive) | GI50 (TK-10): > 100 µM (inactive) | GI50 (DU-145): > 100 µM (inactive) | GI50 (NCI-H460): 43.9 µM (inactive) | GI50 (MOLT-4): 46.7 µM (inactive) | GI50 (MDA-N): 25.8 µM (inactive) | GI50 (786-0): > 100 µM (inactive) | GI50 (T47D): 26.3 µM (inactive)

CC(C)=CCC/C(C)=C/CC/C(C)=C/CC/C(C)=C/CC/C(C)=C\CC/C(C)=C/CC/C(C)=C/CC/C(C)=C/Cc1cc(O)ccc1O
GI50 (SK-OV-3): 4.06 µM (inactive) | GI50 (HT-29): 1.11 µM (active) | GI50 (Hs-578T): 3.33 µM (inactive) | GI50 (U-251): 1.85 µM (inactive) | GI50 (MCF7): 0.126 µM (active) | GI50 (SF-295): 1.45 µM (inactive) | GI50 (NCI-H226): 2.02 µM (inactive) | GI50 (SN12C): 5.31 µM (inactive) | GI50 (CAKI-1): 0.239 µM (active) | GI50 (UACC-62): 0.157 µM (active) | GI50 (LOX IMVI): 0.966 µM (active) | GI50 (EKVX): 2.31 µM (inactive) | GI50 (TK-10): 1.41 µM (inactive) | GI50 (DU-145): 19.4 µM (inactive) | GI50 (NCI-H460): 2.57 µM (inactive) | GI50 (MOLT-4): 1.93 µM (inactive) | GI50 (MDA-N): 0.236 µM (active) | GI50 (786-0): 1.45 µM (inactive) | GI50 (T47D): 1.24 µM (inactive)

CC1(C)C2CCC1(C)C(NC(=O)CCN1CCOCC1)C2 (centres undefined)
GI50 (SK-OV-3): > 100 µM (inactive) | GI50 (HT-29): > 100 µM (inactive) | GI50 (Hs-578T): > 100 µM (inactive) | GI50 (HL-60): > 100 µM (inactive) | GI50 (U-251): > 100 µM (inactive) | GI50 (MCF7): > 100 µM (inactive) | GI50 (SF-295): > 100 µM (inactive) | GI50 (NCI-H226): > 100 µM (inactive) | GI50 (SN12C): > 100 µM (inactive) | GI50 (CAKI-1): > 100 µM (inactive) | GI50 (UACC-62): > 100 µM (inactive) | GI50 (EKVX): > 100 µM (inactive) | GI50 (TK-10): > 100 µM (inactive) | GI50 (DU-145): > 100 µM (inactive) | GI50 (NCI-H460): > 100 µM (inactive) | GI50 (MOLT-4): > 100 µM (inactive) | GI50 (MDA-N): > 100 µM (inactive) | GI50 (786-0): > 100 µM (inactive) | GI50 (T47D): > 100 µM (inactive)

Cc1ccc(-c2cc(N)n(-c3nc4c(c(=O)n(C)c(=O)n4C)n3C)n2)cc1
GI50 (SK-OV-3): 41 µM (inactive) | GI50 (HT-29): > 100 µM (inactive) | GI50 (Hs-578T): 60.1 µM (inactive) | GI50 (HL-60): > 100 µM (inactive) | GI50 (U-251): > 100 µM (inactive) | GI50 (MCF7): > 100 µM (inactive) | GI50 (SF-295): 62.7 µM (inactive) | GI50 (NCI-H226): 86.1 µM (inactive) | GI50 (SN12C): > 100 µM (inactive) | GI50 (CAKI-1): > 100 µM (inactive) | GI50 (UACC-62): > 100 µM (inactive) | GI50 (EKVX): 62.2 µM (inactive) | GI50 (TK-10): > 100 µM (inactive) | GI50 (DU-145): > 100 µM (inactive) | GI50 (NCI-H460): > 100 µM (inactive) | GI50 (MOLT-4): > 100 µM (inactive) | GI50 (MDA-N): > 100 µM (inactive) | GI50 (786-0): 42.2 µM (inactive) | GI50 (T47D): > 100 µM (inactive)
